Data as given in PubChem BioAssay AID1963864 (Molecular Pharmacology Branch, DTP, NCI, 2024).

System: KRAS PDC multicell spheroid viability
Experiment: Anticancer human tumor 521955-158-R6-J3-PDC patient-derived pancreatic carcinoma cell line growth inhibition [KRAS2]
Conditions: for IC50: curve of first compound; for viability, T/C: stronger effect = lower value
Method in brief: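 KRAS-mutant tumor cells were grown as spheroids with HUVEC endothelial cells and human MSCs as stroma. Targeted agents were tested alone and with KRAS pathway inhibitors. Doses started at or near clinical Cmax, or 10 microM, descending half-log.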

[1] = second compound 0.1 µM, first compound 0.000316 µM
[2] = second compound 0.1 µM, first compound 0.001 µM
[3] = second compound 0.1 µM, first compound 0.00316 µM
[4] = second compound 0.1 µM, first compound 0.01 µM
[5] = second compound 0.1 µM, first compound 0.0316 µM
[6] = second compound 0.316 µM, first compound 0.000316 µM
[7] = second compound 0.316 µM, first compound 0.001 µM
[8] = second compound 0.316 µM, first compound 0.00316 µM
[9] = second compound 0.316 µM, first compound 0.01 µM
[10] = second compound 0.316 µM, first compound 0.0316 µM
[11] = second compound 1 µM, first compound 0.000316 µM
[12] = second compound 1 µM, first compound 0.001 µM
[13] = second compound 1 µM, first compound 0.00316 µM
[14] = second compound 1 µM, first compound 0.01 µM
[15] = second compound 1 µM, first compound 0.0316 µM
[16] = second compound 3.16 µM, first compound 0.000316 µM
[17] = second compound 3.16 µM, first compound 0.001 µM
[18] = second compound 3.16 µM, first compound 0.00316 µM
[19] = second compound 3.16 µM, first compound 0.01 µM
[20] = second compound 3.16 µM, first compound 0.0316 µM
[21] = second compound 10 µM, first compound 0.000316 µM
[22] = second compound 10 µM, first compound 0.001 µM
[23] = second compound 10 µM, first compound 0.00316 µM
[24] = second compound 10 µM, first compound 0.01 µM
[25] = second compound 10 µM, first compound 0.0316 µM
[26] = second compound 0.1 µM, first compound 0.1 µM
[27] = second compound 0.316 µM, first compound 0.1 µM
[28] = second compound 1 µM, first compound 0.1 µM
[29] = second compound 3.16 µM, first compound 0.1 µM
[30] = second compound 10 µM, first compound 0.1 µM
[31] = second compound 0.1 µM, first compound 0.316 µM
[32] = second compound 0.1 µM, first compound 1 µM
[33] = second compound 0.1 µM, first compound 3.16 µM
[34] = second compound 0.1 µM, first compound 10 µM
[35] = second compound 0.316 µM, first compound 0.316 µM
[36] = second compound 0.316 µM, first compound 1 µM
[37] = second compound 0.316 µM, first compound 3.16 µM
[38] = second compound 0.316 µM, first compound 10 µM
[39] = second compound 1 µM, first compound 0.316 µM
[40] = second compound 1 µM, first compound 1 µM
[41] = second compound 1 µM, first compound 3.16 µM
[42] = second compound 1 µM, first compound 10 µM
[43] = second compound 3.16 µM, first compound 0.316 µM
[44] = second compound 3.16 µM, first compound 1 µM
[45] = second compound 3.16 µM, first compound 3.16 µM
[46] = second compound 3.16 µM, first compound 10 µM
[47] = second compound 10 µM, first compound 0.316 µM
[48] = second compound 10 µM, first compound 1 µM
[49] = second compound 10 µM, first compound 3.16 µM
[50] = second compound 10 µM, first compound 10 µM
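Also: drug exposure lasted seven days.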
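For viability, T/C in this document: 100% = DMSO vehicle wells and lower means fewer viable cells.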

CC(=O)Nc1cccc(-n2c(=O)n(C3CC3)c(=O)c3c(Nc4ccc(I)cc4F)n(C)c(=O)c(C)c32)c1 + CC1OCC2(CCN(c3cnc(Sc4ccnc(N)c4Cl)c(N)n3)CC2)C1N
IC50 (second compound 0.1 µM): 0.0189 µM | IC50 (second compound 0.316 µM): 0.0125 µM | IC50 (second compound 1 µM): 0.00543 µM | IC50 (second compound 3.16 µM): 0.00244 µM | IC50 (second compound 10 µM): 0.00224 µM | viability, T/C (second compound 0.1 µM, first compound 0.0001 µM): 87.8% | viability, T/C [1]: 82.8% | viability, T/C [2]: 91.2% | viability, T/C [3]: 83.5% | viability, T/C [4]: 56.7% | viability, T/C [5]: 44.6% | viability, T/C (second compound 0.316 µM, first compound 0.0001 µM): 83.2% | viability, T/C [6]: 85.7% | viability, T/C [7]: 77.2% | viability, T/C [8]: 65% | viability, T/C [9]: 55.7% | viability, T/C [10]: 33.7% | viability, T/C (second compound 1 µM, first compound 0.0001 µM): 103% | viability, T/C [11]: 87.6% | viability, T/C [12]: 80.1% | viability, T/C [13]: 55.3% | viability, T/C [14]: 41.8% | viability, T/C [15]: 27.8% | viability, T/C (second compound 3.16 µM, first compound 0.0001 µM): 105% | viability, T/C [16]: 90.7% | viability, T/C [17]: 62.8% | viability, T/C [18]: 47% | viability, T/C [19]: 34.9% | viability, T/C [20]: 28.6% | viability, T/C (second compound 10 µM, first compound 0.0001 µM): 85.6% | viability, T/C [21]: 70.9% | viability, T/C [22]: 67.4% | viability, T/C [23]: 42.3% | viability, T/C [24]: 30.3% | viability, T/C [25]: 23%

CC(C)n1nc(-c2ccc3oc(N)nc3c2)c2c(N)ncnc21 + CC1OCC2(CCN(c3cnc(Sc4ccnc(N)c4Cl)c(N)n3)CC2)C1N
IC50 (second compound 0.1 µM): > 0.1 µM | IC50 (second compound 0.316 µM): 0.0563 µM | IC50 (second compound 1 µM): 0.0557 µM | IC50 (second compound 3.16 µM): 0.0335 µM | IC50 (second compound 10 µM): 0.0235 µM | viability, T/C [1]: 89% | viability, T/C [2]: 85.8% | viability, T/C [3]: 74% | viability, T/C [4]: 65.3% | viability, T/C [5]: 57.4% | viability, T/C [26]: 50% | viability, T/C [6]: 92.3% | viability, T/C [7]: 84.2% | viability, T/C [8]: 71.7% | viability, T/C [9]: 65.6% | viability, T/C [10]: 56.2% | viability, T/C [27]: 44.3% | viability, T/C [11]: 88.3% | viability, T/C [12]: 86.5% | viability, T/C [13]: 74.2% | viability, T/C [14]: 66.8% | viability, T/C [15]: 56% | viability, T/C [28]: 44.1% | viability, T/C [16]: 112% | viability, T/C [17]: 113% | viability, T/C [18]: 88.8% | viability, T/C [19]: 70.7% | viability, T/C [20]: 51.3% | viability, T/C [29]: 40.2% | viability, T/C [21]: 99.1% | viability, T/C [22]: 101% | viability, T/C [23]: 89.7% | viability, T/C [24]: 63.1% | viability, T/C [25]: 47.3% | viability, T/C [30]: 38.3%

COc1cc(Nc2ncc3c(n2)-c2ccc(Cl)cc2C(c2c(F)cccc2OC)=NC3)ccc1C(=O)O + CC1OCC2(CCN(c3cnc(Sc4ccnc(N)c4Cl)c(N)n3)CC2)C1N
IC50 (second compound 0.1 µM): > 10 µM | IC50 (second compound 0.316 µM): > 10 µM | IC50 (second compound 1 µM): > 10 µM | IC50 (second compound 3.16 µM): > 10 µM | IC50 (second compound 10 µM): > 10 µM | viability, T/C [5]: 101% | viability, T/C [26]: 101% | viability, T/C [31]: 99.8% | viability, T/C [32]: 82.2% | viability, T/C [33]: 99.8% | viability, T/C [34]: 95.8% | viability, T/C [10]: 97.1% | viability, T/C [27]: 95.1% | viability, T/C [35]: 95.6% | viability, T/C [36]: 86.6% | viability, T/C [37]: 81.3% | viability, T/C [38]: 87.9% | viability, T/C [15]: 102% | viability, T/C [28]: 98.5% | viability, T/C [39]: 88.1% | viability, T/C [40]: 91.7% | viability, T/C [41]: 90.9% | viability, T/C [42]: 98% | viability, T/C [20]: 103% | viability, T/C [29]: 105% | viability, T/C [43]: 97.9% | viability, T/C [44]: 103% | viability, T/C [45]: 104% | viability, T/C [46]: 93.4% | viability, T/C [25]: 113% | viability, T/C [30]: 101% | viability, T/C [47]: 103% | viability, T/C [48]: 96.5% | viability, T/C [49]: 103% | viability, T/C [50]: 91.5%

COc1cc2nccc(Oc3ccc(NC(=O)C4(C(=O)Nc5ccc(F)cc5)CC4)cc3)c2cc1OC + CC1OCC2(CCN(c3cnc(Sc4ccnc(N)c4Cl)c(N)n3)CC2)C1N
IC50 (second compound 0.1 µM): > 10 µM | IC50 (second compound 0.316 µM): > 10 µM | IC50 (second compound 1 µM): > 10 µM | IC50 (second compound 3.16 µM): > 10 µM | IC50 (second compound 10 µM): > 10 µM | viability, T/C [5]: 93.7% | viability, T/C [26]: 93.7% | viability, T/C [31]: 89.3% | viability, T/C [32]: 102% | viability, T/C [33]: 105% | viability, T/C [34]: 102% | viability, T/C [10]: 97.5% | viability, T/C [27]: 91% | viability, T/C [35]: 89.3% | viability, T/C [36]: 105% | viability, T/C [37]: 108% | viability, T/C [38]: 86.5% | viability, T/C [15]: 116% | viability, T/C [28]: 96.8% | viability, T/C [39]: 108% | viability, T/C [40]: 112% | viability, T/C [41]: 90.7% | viability, T/C [42]: 90% | viability, T/C [20]: 115% | viability, T/C [29]: 122% | viability, T/C [43]: 118% | viability, T/C [44]: 119% | viability, T/C [45]: 103% | viability, T/C [46]: 81.6% | viability, T/C [25]: 112% | viability, T/C [30]: 121% | viability, T/C [47]: 111% | viability, T/C [48]: 119% | viability, T/C [49]: 80.6% | viability, T/C [50]: 67.7%
